# Laboratory results reported in publication PMC10145651, “Modulation of the 5-Lipoxygenase Pathway by Chalcogen-Containing Inhibitors of Leukotriene A4 Hydrolase” (International Journal of Molecular Sciences, 2023).
# Several values for one entry are separate records, joined by “and”; a condition that tells them apart may be missing. Equal values may be shown once. Read-outs that look alike come from different tables or passages of the source.
# Assays:
# [1] = tested on: peripheral blood-derived monocytes; assay: MTT cytotoxicity assay with monocytes; assay type: cell-based, human; settings: lower concentrations (less than 30 µM); MTT and LDH assays, Figure S3
# Method: Human primary leukocytes were isolated from peripheral blood of healthy adult volunteers provided by the Institute of Transfusion Medicine at the University Hospital Greifswald as described before. All methods were performed in accordance with the Declaration of Helsinki. […] The remaining erythrocytes were removed by hypotonic lysis using water, and resulting polymorphonuclear neutrophils (PMNs) were resuspended in PBS containing 0.1% (w/v) glucose (PG buffer) or PG buffer with 1 mM CaCl2 (PGC buffer) as indicated.
# Then, cells were incubated with 5 mg/mL MTT in PBS until the blue staining of the vehicle-containing control cells. Formazan formation was stopped by 100 µL of 10% (w/v in 20 mM HCl) SDS lysis buffer and followed by shaking overnight. Finally, absorbance was measured at 570 nm with a SpectraMax® i3x multi-mode detection platform (Molecular Devices, San Jose, CA, USA). The pan-protein kinase inhibitor staurosporine (1 µM) was used as a cytotoxic control inhibitor.
# LTA4H = target: T1, LTA4H (Homo sapiens, UniProt P09960); assay: 5-LOX product formation from intact PMNs: LTB4 (cellular activity of LTA4H); assay type: cell-based; settings: for inhibition of LTA4H (LTB4 production) in PMNs with exogenous AA: 10 µM inhibitor, 0–20 µM AA
# T1 sequence (P09960 1-611): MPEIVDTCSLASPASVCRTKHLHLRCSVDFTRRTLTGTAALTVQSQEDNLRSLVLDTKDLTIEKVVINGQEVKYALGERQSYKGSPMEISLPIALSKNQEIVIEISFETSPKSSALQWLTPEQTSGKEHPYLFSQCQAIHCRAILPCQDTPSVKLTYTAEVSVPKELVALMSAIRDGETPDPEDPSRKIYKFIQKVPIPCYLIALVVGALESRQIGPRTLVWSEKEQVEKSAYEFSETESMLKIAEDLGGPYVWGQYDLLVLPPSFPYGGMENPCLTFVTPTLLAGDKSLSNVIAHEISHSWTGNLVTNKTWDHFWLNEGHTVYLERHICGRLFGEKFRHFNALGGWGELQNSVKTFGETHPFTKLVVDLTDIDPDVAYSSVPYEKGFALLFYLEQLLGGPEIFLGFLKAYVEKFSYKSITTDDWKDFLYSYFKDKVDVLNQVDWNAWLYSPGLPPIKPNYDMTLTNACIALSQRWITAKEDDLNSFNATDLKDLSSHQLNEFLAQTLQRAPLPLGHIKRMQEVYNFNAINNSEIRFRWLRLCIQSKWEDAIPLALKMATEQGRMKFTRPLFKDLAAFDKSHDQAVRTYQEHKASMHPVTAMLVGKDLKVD
# Method: Human primary leukocytes were isolated from peripheral blood of healthy adult volunteers provided by the Institute of Transfusion Medicine at the University Hospital Greifswald as described before. All methods were performed in accordance with the Declaration of Helsinki. In brief, erythrocytes were removed by dextran sedimentation and leukocytes were separated by the density gradient centrifugation on a lymphocyte separation medium (Histopaque®-1077, Merck, Darmstadt, Germany). The remaining erythrocytes were removed by hypotonic lysis using water, and resulting polymorphonuclear neutrophils (PMNs) were resuspended in PBS containing 0.1% (w/v) glucose (PG buffer) or PG buffer with 1 mM CaCl2 (PGC buffer) as indicated. Resulting peripheral blood mononuclear cells (PBMC), including monocytes, were seeded in the RPMI 1640 medium supplemented with 10% (v/v) FCS, 100 U/mL penicillin, 100 µg/mL streptomycin and 2 mM L-glutamine in cell culture flasks (Greiner Bio-one, Frickenhausen, Germany) for 1.5 h at 37 °C and 5% CO2. Adherent monocytes were washed twice with PBS and were finally resuspended in the RPMI 1640 medium as described before.
# PMNs (5 × 10^6 cells/mL) were diluted in PGC buffer and pre-incubated with the vehicle (0.1%; v/v) or compounds for 10 min at 37 °C prior to the stimulation with 2.5 µM A23187. After 10 min at 37 °C, treatments were stopped on ice with an equal volume of ice-cold methanol. Next, 530 µL acidified PBS containing 200 ng PGB1 as an internal standard were added to the sample followed by the solid phase extraction with on a RP18 column. […] Formed 5-LOX metabolites were analyzed as described previously.
# 5-LOX = target: T2, 5-LOX (Homo sapiens, UniProt P09917); assay: Inhibition assay with recombinant 5-LOX; assay type: biochemical; set-up: made in house; host or cells: Escherichia coli BL21; settings: 20 µM AA, 2 mM CaCl2
# T2 sequence (P09917 1-674): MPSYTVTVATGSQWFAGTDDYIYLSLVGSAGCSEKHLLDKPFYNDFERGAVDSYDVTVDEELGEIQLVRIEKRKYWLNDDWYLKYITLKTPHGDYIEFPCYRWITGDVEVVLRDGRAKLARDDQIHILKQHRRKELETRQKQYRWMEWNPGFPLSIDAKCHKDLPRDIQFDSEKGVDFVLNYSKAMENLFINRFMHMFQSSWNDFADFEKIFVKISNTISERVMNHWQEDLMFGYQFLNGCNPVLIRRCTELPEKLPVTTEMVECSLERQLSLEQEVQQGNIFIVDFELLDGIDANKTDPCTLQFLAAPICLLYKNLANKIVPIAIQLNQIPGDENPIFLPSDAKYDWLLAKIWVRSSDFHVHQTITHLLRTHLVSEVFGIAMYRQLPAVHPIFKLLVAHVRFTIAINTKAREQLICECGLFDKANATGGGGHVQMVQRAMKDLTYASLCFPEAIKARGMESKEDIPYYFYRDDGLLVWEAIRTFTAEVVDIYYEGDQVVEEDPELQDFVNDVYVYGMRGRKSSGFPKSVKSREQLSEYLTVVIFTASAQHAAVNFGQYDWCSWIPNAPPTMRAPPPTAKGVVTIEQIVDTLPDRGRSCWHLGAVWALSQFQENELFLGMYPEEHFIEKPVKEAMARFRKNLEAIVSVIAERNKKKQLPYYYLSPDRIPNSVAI
# Method: Escherichia coli BL21 cells were transformed with the pT3-5-LO vector and human recombinant 5-LOX was expressed overnight at 30 °C as previously described. […] The supernatant was loaded on an ATP-agarose column and washed with 50 mM phosphate buffer (PB) containing 1 mM EDTA. Protein fractions were eluted with PB supplemented with 1 mM EDTA and 20 mM ATP. Aliquots of semi-purified 5-LOX were diluted with PBS containing 1 mM EDTA and used immediately in incubations.
# Aliquots of 5-LOX (0.5 μg) were pre-incubated with test compounds or a vehicle (0.1%, v/v) for 10 min at 4 °C. […] The reaction was stopped after 10 min by addition of 1 vol of ice-cold methanol. Formed metabolites, i.e., LTB4, trans- and epi-trans-LTB4, and 5S-HETE, were analyzed with reverse-phase HPLC using a C18 RP Radial PAK column (Waters) as described previously.
# [2] = A23187-activated intact PMNs, LTB4 formation, read-out: IC50 on the activity of LTA4H (LTB4) in PMNs
# [3] = read-out: IC50 with recombinant human 5-LOX
inhibition of LTA4H (LTB4 production) in PMNs with exogenous AA (LTA4H),IC50 (LTA4H; [2]),IC50 (5-LOX; [3]),SMILES,safety in human leukocytes (cytotoxicity assays) [1],IC50 (LTA4H),IC50 (5-LOX; IC50 with recombinant human 5-LOX)
almost complete,0.6 µM,6.7 µM and ~6 µM,"Nc1nc(-c2ccc(Cc3ccccc3)cc2)cs1 [ARM1, 4-(4-benzylphenyl) thiazol-2-amine, reference compound]",safe,–,–
higher production of LTB4,0.8 µM,33.6 µM and > 30 µM,"Nc1nc(-c2ccc(Cc3ccccc3)cc2)co1 [TTO, 4-(4-benzylphenyl) oxazol-2-amine]",safe,–,–

SMILES,inhibition of LTA4H (LTB4 production) in PMNs with exogenous AA (LTA4H),IC50 (LTA4H; [2]),IC50 (5-LOX; [3]),safety in human leukocytes (cytotoxicity assays) [1],IC50 (LTA4H),IC50 (5-LOX; IC50 with recombinant human 5-LOX)
"Nc1nc(-c2ccc(Cc3ccccc3)cc2)c[se]1 [TTSe, 4-(4-benzylphenyl) selenazol-2-amine]",almost complete,–,–,safe,0.8 µM,19.9 µM and ~20 µM
